In patent US20260223850A1, “SUBSTITUTED PYRROLIDONE COMPOUND, PREPARATION METHOD THEREFOR, COMPOSITION AND APPLICATION THEREOF” (QINGDAO KINGAGROOT CHEMICAL COMPOUND CO., LTD., priority 2023, published 2026):

Legend:
Test in all cases: Seedling stage sealing experiment for water-seeding
Type in all cases: in vivo
Leptochloa chinensis = conditions: 120 g a.i./ha, 15 days, fresh weight control rate
Description: (1) Seedling Stage Sealing Experiment for Water-Seeding:
The activity level criteria for plant damage (i.e., growth control rate) are as follows: • Level 9: completely dead; • Level 8: growth control rate greater than or equal to 90% and less than 100%; • Level 7: growth control rate greater than or equal to 80% and less than 90%; • Level 6: growth control rate greater than or equal to 70% and less than 80%; • Level 5: growth control rate greater than or equal to 50% and less than 70%; • Level 4: growth control rate greater than or equal to 30% and less than 50%; • Level 3: growth control rate greater than or equal to 20% and less than 30%; • Level 2: growth control rate greater than or equal to 10% and less than 20%; • Level 1: growth control rate less than 10%; • Level 0: no effect.
The above growth control rates are fresh weight control rates.
Echinochloa phyllopogon, Digitaria sanguinalis, Huaidao (rice cultivar), etc. were broadcasted on the surface of nutrition bowls filled with soil and fully covered by soil. The foregoing well-prepared nutrition bowls were then placed in a cultivation box with water filled to a suitable height to keep the soil in the nutrition bowls moist. A test compound of the present invention was individually dissolved with acetone, then diluted into solution of a certain concentration using a certain amount of water, and sprayed using a spray tower. The plants were placed on a greenhouse seedbed and cultured for 15 days, and the experimental results were then collected. The compound was applied at 120, 60, 30 and 15 g a.i./ha in triplicate, and the results were averaged.

Echinochloa crusgalli = conditions: 120 g a.i./ha, seedling stage sealing, 15 days, fresh weight control rate
Echinochloa phyllopogon = conditions: 120 g a.i./ha, seedling stage sealing, 15 days, fresh weight control rate
Summary of the method: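 Seeds sown on soil in pots kept moist in water-filled boxes, then sprayed with acetone/water compound solution at 120, 60, 30 and 15 g a.i./ha, in triplicate. Effect scored after 15 days in greenhouse as 0–9 levels of fresh-weight growth control, averaged.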

Structure (SMILES) | Leptochloa chinensis activity level (growth control rate) (Leptochloa chinensis) | Echinochloa crusgalli activity level (growth control rate) (Echinochloa crusgalli) | Echinochloa phyllopogon activity level (growth control rate) (Echinochloa phyllopogon)
CC(C)c1c(NC(=O)[C@H]2C(=O)N(C)C[C@@H]2c2cccc(C(F)(F)F)c2)cnn1C [194′] | 6 (Level 6: growth control rate greater than or equal to 70% and less than 80%) | 5 (Level 5: growth control rate greater than or equal to 50% and less than 70%) | 5 (Level 5: growth control rate greater than or equal to 50% and less than 70%)
CN1C[C@H](c2cccc(C(F)(F)F)c2)[C@@H](C(=O)Nc2cnn(C)c2C2CC2)C1=O [195′] | 9 | 9 | 7 (Level 7: growth control rate greater than or equal to 80% and less than 90%)
CN1C[C@H](c2cccc(C(F)(F)F)c2)[C@@H](C(=O)Nc2cnn(C(F)F)c2C2CC2)C1=O [196′] | 9 | 9 | 9
CC(C)n1ncc(NC(=O)[C@H]2C(=O)N(C)C[C@@H]2c2cccc(C(F)(F)F)c2)c1C1CC1 [197′] | 9 | 8 (Level 8: growth control rate greater than or equal to 90% and less than 100%) | 6 (Level 6: growth control rate greater than or equal to 70% and less than 80%)
C=Cc1c(NC(=O)[C@H]2C(=O)N(C)C[C@@H]2c2cccc(C(F)(F)F)c2)cnn1C [203′] | 9 | 9 | 9
CN1C[C@H](c2cccc(C(F)(F)F)c2)[C@@H](C(=O)Nc2c(O)nn(C)c2F)C1=O [212′] | 9 | 9 | 9
COc1cccc([C@H]2CN(C)C(=O)[C@@H]2C(=O)Nc2cnn(C)c2C2CC2)c1 [217′] | 6 (Level 6: growth control rate greater than or equal to 70% and less than 80%) | 9 | 6 (Level 6: growth control rate greater than or equal to 70% and less than 80%)
CN1C[C@H](c2cccc(OC(F)(F)F)c2)[C@@H](C(=O)Nc2c(O)nn(C)c2F)C1=O [229′] | 9 | 9 | 9
CN1C[C@H](c2cccc(OC(F)(F)C(F)F)c2)[C@@H](C(=O)Nc2cnn(C)c2Cl)C1=O [231′] | 9 | 9 | 6 (Level 6: growth control rate greater than or equal to 70% and less than 80%)
CN1C[C@H](c2cc(F)cc(F)c2)[C@@H](C(=O)Nc2c(O)nn(C)c2F)C1=O [263′] | 9 | 9 | 8 (Level 8: growth control rate greater than or equal to 90% and less than 100%)
Cc1cc(Br)cc([C@H]2CN(C)C(=O)[C@@H]2C(=O)Nc2cnn(C)c2Cl)c1 [265′] | 9 | 9 | 9
Cc1cc(C)cc([C@H]2CN(C)C(=O)[C@@H]2C(=O)Nc2cnn(C(F)F)c2Cl)c1 [269′] | 9 | 9 | 9
C=Cc1c(NC(=O)[C@H]2C(=O)N(C)C[C@@H]2c2cc(C)cc(C)c2)cnn1C [275′] | 9 | 9 | 9
CN1C[C@H](c2cc(F)cc(C(F)(F)F)c2)[C@@H](C(=O)Nc2cnn(C3CC3)c2Cl)C1=O [290′] | 9 | 9 | 8 (Level 8: growth control rate greater than or equal to 90% and less than 100%)
CC(C)n1ncc(NC(=O)[C@H]2C(=O)N(C)C[C@@H]2c2cc(F)cc(C(F)(F)F)c2)c1Cl [291′] | 9 | 9 | 9
CN1C[C@H](c2cc(F)cc(C(F)(F)F)c2)[C@@H](C(=O)Nc2cnn(C)c2C2CC2)C1=O [293′] | 9 | 9 | 9
COc1cc(Cl)cc([C@H]2CN(C)C(=O)[C@@H]2C(=O)Nc2cnn(C)c2Cl)c1 [297′] | 9 | 9 | 6 (Level 6: growth control rate greater than or equal to 70% and less than 80%)
CCOc1cc(F)cc([C@H]2CN(C)C(=O)[C@@H]2C(=O)Nc2cnn(C)c2Cl)c1 [299′] | 9 | 9 | 9
COc1cc(C)cc([C@H]2CN(C)C(=O)[C@@H]2C(=O)Nc2cnn(C)c2Cl)c1 [300′] | 9 | 9 | 7 (Level 7: growth control rate greater than or equal to 80% and less than 90%)
CN1C[C@H](c2ccc(F)c(Cl)c2)[C@@H](C(=O)Nc2cnn(C)c2C2CC2)C1=O [308′] | 9 | 9 | 9
CN1C[C@H](c2ccc(F)c(Cl)c2)[C@@H](C(=O)Nc2c(O)nn(C)c2F)C1=O [311′] | 9 | 9 | 8 (Level 8: growth control rate greater than or equal to 90% and less than 100%)
CN1C[C@H](c2ccc(C(F)(F)F)c(F)c2)[C@@H](C(=O)Nc2cnn(C)c2Cl)C1=O [315′] | 9 | 9 | 8 (Level 8: growth control rate greater than or equal to 90% and less than 100%)
CC(C)Oc1cc([C@H]2CN(C)C(=O)[C@@H]2C(=O)Nc2cnn(C)c2Cl)ccc1F [318′] | 8 (Level 8: growth control rate greater than or equal to 90% and less than 100%) | 9 | 8 (Level 8: growth control rate greater than or equal to 90% and less than 100%)
COc1cc([C@H]2CN(C)C(=O)[C@@H]2C(=O)Nc2cnn(C)c2Cl)ccc1Cl [319′] | 6 (Level 6: growth control rate greater than or equal to 70% and less than 80%) | 5 (Level 5: growth control rate greater than or equal to 50% and less than 70%) | 5 (Level 5: growth control rate greater than or equal to 50% and less than 70%)
